Like-named read-outs stand apart in the source and are kept apart here.
Assays:
[1] = Hygroscopicity: water vapour sorption/desorption isotherm (DVS-1000); format: physicochemical; conditions: 25° C./60% relative humidity, in comparison with weight equilibrated at 0% relative humidity at 25° C.
Description: The hygroscopicity of the 2-(n-propyl)quinoline camsylate crystals is evaluated by studying the sorption/desorption isotherm of water in the vapor phase on a device of DVS-1000 type sold by SMS.
The sample, analyzed in a quartz pan with a specimen size of the order of 10 mg, is subjected to two cycles of variation in relative humidity (RH) which are linked together continuously. Each cycle comprises two stages, adsorption and then desorption of water, during which the relative humidity in the measuring chamber is increased and then decreased gradually according to the conditions described in table 2.
The sample is first dried under a stream of filtered dry air until its weight has stabilized. The stages of adsorption and of desorption are then made successively. The carrier gas used to maintain the relative humidity at a set percentage is air dried upstream of the device and delivered at a flow rate of 100 ml/min. During the progression of the program, the temperature in the measuring chamber is maintained at 25° C.

[2] = tested on: female CD-1 mice; conditions: 5 animals
Description: (§1) 250 mg of carboxymethylcellulose are dissolved in 50 ml of a 5% glucose solution. 5 ml aliquots containing 0.5% of Tween 80 are emulsified with the quinoline salts (final concentrations at 0.4 mg/ml, 4 mg/ml and 40 mg/ml). The emulsions are subsequently homogenized. The emulsions are administered by force feeding in a single dose to four groups of five female CD-1 mice at the concentrations of 10 mg/kg, 100 mg/kg and 1000 mg/kg and without compounds (control group). The control group receives a glucose-comprising emulsion containing 0.5% of carboxymethyl-cellulose (CMC) and […]. The behavior of the animals is observed and the number of deaths is counted after 1 min, 15 min, 30 min, 1 h, 4 h, 8 h and each day for 14 days. On the final day, a blood sample is taken. Biochemical analyses are carried out in order to evaluate the nephrotoxicity and the hepatotoxicity, the levels of creatinine, of aspartate aminotransferase (ASAT), of alanine aminotransferase (ALAI) and of cholesterol being quantitatively determined.

[3] = tested on: female CD-1 mice; test: Acute toxicity: blood biochemical parameters on the final day (nephrotoxicity, hepatotoxicity); conditions: blood sample on final day (day 14)
Description: as §1

[4] = Chemical stability of solutions in five solvents, HPLC daily for 9 days; conditions: 200 μg/ml in methanol, pH 7 buffer, camphorsulfonic acid pH 2, DMSO, CMC 0.5%/Tween 80 0.5%, 4° C., ambient with light, ambient without light
Description: The quinoline salts are dissolved at a concentration of 200 μg/ml in five different solvents: methanol, an aqueous solution buffered at pH 7, an aqueous camphorsulfonic acid solution at pH 2, dimethyl sulfoxide (DMSO) and an aqueous solution comprising a mixture of carboxymethylcellulose at 0.5% and Tween 80 at 0.5%.
Each preparation is divided into three parts which are stored under different conditions of temperature and of luminosity: at 4° C., at ambient temperature under the influence of light and at ambient temperature with the exclusion of light. The samples are diluted (1:20) and then analyzed by high performance liquid chromotography (HPLC) daily for 9 days.
Use was made, in carrying out the high performance liquid chromotography analysis, of a Waters LC system comprising a model 600 pump with inline degassing and, as detector, a 996 photodiode detector device. The acquisition of the data was carried out by the use of the Empower® program (Waters, France). The column used was a Symmetry Shield RP18, 3.5 μm 4.6×150 mm. […] The UV absorbance spectra were recorded at between 210 and 400 nm. The chromatogram of the propyl salt was recorded at 233 nm and that of the alcohol derivative at 249 nm.

For `CC1(C)C2CCC1(CS(=O)(=O)O)C(=O)C2.CCCc1ccc2ccccc2n1` (centres unmarked) [Camphorsulfonate salt of 2-(n-propyl)quinoline], the “increase in weight (water sorption)” value [1] was “less than 2%”, the acute toxicity observation ([2]; single dose 10 mg/kg oral route) was “absence of toxicity” and the acute toxicity observation ([2]; single dose 100 mg/kg oral route) was “absence of toxicity”. For the same molecule, the “mice showing signs of lethargy” value ([2]; single dose 1 g/kg oral route, t15 min) was “t15 min = 3 mice showed”, the lethargic mice ([2]; single dose 1 g/kg oral route, t1 h) was “t1 h = 2 lethargic mice” and the acute toxicity observation ([2]; single dose 1 g/kg oral route, t4 h) was “t4 h = absence of toxicity”. It also gave an ALAT ([3]; dose 10 mg/kg oral) of 215 ± 123 IU/l, an ASAT ([3]; dose 10 mg/kg oral) of 410 ± 57 IU/l and a Cholesterol ([3]; dose 10 mg/kg oral) of 3.9 ± 0.3 mM. The Creatinine ([3]; dose 10 mg/kg oral) was <18 µM, the ALAT ([3]; dose 100 mg/kg oral) was 168 ± 67 IU/l and the ASAT ([3]; dose 100 mg/kg oral) was 515 ± 72 IU/l. For the same molecule, the Cholesterol ([3]; dose 100 mg/kg oral) was 4.1 ± 0.5 mM, the Creatinine ([3]; dose 100 mg/kg oral) was <18 µM and the ALAT ([3]; dose 1 g/kg oral) was 199 ± 89 IU/l. For the same molecule, the ASAT ([3]; dose 1 g/kg oral) was 422 ± 187 IU/l, the Cholesterol ([3]; dose 1 g/kg oral) was 3.8 ± 0.4 mM and the Creatinine ([3]; dose 1 g/kg oral) was <18 µM. The “chemical stability in solution” value ([4]; listed as 2-(n-propyl)quinoline in the form of the camphorsulfonic acid salt) was “chemical stability compatible with the development of a medicament” and the “chemical stability in solution” value ([4]; listed as propyl salt) was “stable whatever the conditions tested”.

From patent US8344145B2, “Salts of 2-substituted quinolines” (priority 2008, dated 2013)
